This experiment has as its target T1, hURAT1 (Homo sapiens, UniProt Q96S37).
T1 construct: expressed in transfected cells
T1 sequence (Q96S37 1-553): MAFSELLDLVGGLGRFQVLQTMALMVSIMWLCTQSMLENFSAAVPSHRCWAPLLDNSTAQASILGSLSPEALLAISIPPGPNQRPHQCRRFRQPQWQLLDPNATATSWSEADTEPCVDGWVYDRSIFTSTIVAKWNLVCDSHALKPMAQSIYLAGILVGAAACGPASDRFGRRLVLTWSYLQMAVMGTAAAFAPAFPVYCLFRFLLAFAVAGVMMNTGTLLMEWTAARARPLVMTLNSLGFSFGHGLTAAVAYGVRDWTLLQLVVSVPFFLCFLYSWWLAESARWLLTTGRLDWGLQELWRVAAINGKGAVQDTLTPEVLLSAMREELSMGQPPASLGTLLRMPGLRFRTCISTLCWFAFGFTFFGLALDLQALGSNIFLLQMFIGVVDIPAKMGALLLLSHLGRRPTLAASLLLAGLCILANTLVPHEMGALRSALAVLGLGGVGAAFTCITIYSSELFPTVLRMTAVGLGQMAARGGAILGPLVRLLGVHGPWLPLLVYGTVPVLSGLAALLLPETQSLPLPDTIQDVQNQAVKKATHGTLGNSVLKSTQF
Kind of experiment: Inhibition of 14C-uric acid uptake by hURAT1 in HEK293-transfected cells. Type of experiment: cell-based. Particulars: HEK-293T cells stably expressing hURAT1, 14C-uric acid uptake, 5 min at 37° C. The procedure:
1. Cell Culture and Inoculation
2) When the cells covered 80% of the culture medium, the culture medium was removed. The cells were washed with PBS once, followed by digestion with pancreatin-EDTA. After detachment, the cells were added with a culture medium, exfoliated by pipetting, and centrifuged for harvesting. The harvested cells were added with a culture medium and mixed well to give a cell suspension.
3) The cell density was adjusted to 3×10^5 cells/mL, transferred into a white-wall, clear-bottom, 96-well cell culture plate with 100 μL/well, and incubated for 12-24 h.
1) A 20 mM stock solution of the compound was prepared with DMSO. Then the stock solution was diluted to a starting concentration of 2 mM with DMSO.
2) The solution was serially 4-fold diluted with DMSO from […] to the 10th concentration on a 96-well plate serving as the 100× plate, and respective quality controls were prepared.
3) The solutions in corresponding wells were 10-fold diluted with Cl-free HBSS buffer on another 96-well plate serving as the 10× plate.
4) Buffer containing 0.1 μCi/mL ^14C-uric acid, at 45 μL/well, and a 10× diluted compound, at 5 μL/well, were added to a third 96-well plate serving as the 1× plate for later use. The concentration of DMSO was 1%.
3. Uptake of ^14C-Uric Acid in Cells Stably Expressing hURAT1
1) The uptake assay was performed after the cultivated cells in 96-well plates adhered.
2) The cells were washed once with pre-heated buffer at 200 μL/well.
3) After the wells were dried, corresponding compounds (50 μL/well) and 0.1 μCi/mL ^14C-uric acid were immediately added.
4) The plate with the compound was incubated in a 37° C. incubator for 5 min.
5) 150 μL of ice-cold buffer was added to each well to terminate the uptake. Each well was washed three times with buffer. The cells were carefully washed to avoid detachment.
6) 50 μL of lysis buffer was added to each well, prior to shaking at 900 rpm on an oscillator for 5 min.
7) 150 μL of scintillation solution (Microint 40) was added to each well before shaking at 900 rpm for 5 min.
8) Finally, the microwell plate was transferred to a MicroBeta Trilux (PerkinElmer Co. Ltd.) for detection.
The data were analyzed and the IC50 of the quality controls and all test compounds on the plates were calculated using XL-fit software.

Each structure is given as a SMILES string.

`CCc1nc2ncccn2c1C(=O)c1cc(Br)c(O)c(Br)c1` [Example 20, 2,6-dibromo-4-([2-ethylimidazo[1,2-a]pyrimidin-3-yl]carbonyl) phenol] had an IC50 of less than 50 nM. With `CCc1nc2ncc(Br)cn2c1C(=O)c1cc(Br)c(O)c(Br)c1` [Example 3, (6-bromo-2-ethylimidazo[1,2-a]pyrimidin-3-yl)(3,5-dibromo-4-hydroxyphenyl)methanone], the IC50 was less than 50 nM. Under `CCc1nc2cc(C(F)(F)F)ncn2c1C(=O)c1cc(Br)c(O)c(Br)c1` [Example 7, (3,5-dibromo-4-hydroxyphenyl)(2-ethyl-7-(trifluoromethyl)imidazo[1,2-c]pyrimidin-3-yl)methanone] stands 50 to 200 nM; under `CCc1nc2ncc(F)cn2c1C(=O)c1cc(Br)c(O)c(Br)c1` [Example 4, (3,5-dibromo-4-hydroxyphenyl)(2-ethyl-6-fluoroimidazo[1,2-a]pyrimidin-3-yl)methanone], less than 50 nM; under `CCc1nc2cc(Cl)ncn2c1C(=O)c1cc(Br)c(O)c(Br)c1` [Example 21, (7-chloro-2-ethylimidazo[1,2-f]pyrimidin-3-yl)(3,5-dibromo-4-hydroxyphenyl)methanone], less than 50 nM. The result for `CCn1nc2ccncc2c1C(=O)c1cc(Br)c(O)c(Br)c1` [Example 16, (3,5-dibromo-4-hydroxyphenyl)(2-ethyl-2H-pyrazolo[4,3-c]pyridin-3-yl)methanone] reads less than 50 nM; that for `CCc1nc2ncc(C(F)(F)F)cn2c1C(=O)c1cc(Br)c(O)c(Br)c1` [Example 5, (3,5-dibromo-4-hydroxyphenyl)(2-ethyl-6-(trifluoromethyl)imidazo[1,2-a]pyrimidin-3-yl)methanone], less than 50 nM.

The molecule `CCc1nc2ncccn2c1C(=O)c1cc(Br)c(O)c(C(F)(F)F)c1` [Example 23, (3-bromo-4-hydroxy-5-(trifluoromethyl)phenyl)(2-ethylimidazo[1,2-a]pyrimidin-3-yl)methanone] gave an IC50 of 50 to 200 nM. The molecule `CCc1nc2ncc(F)cn2c1C(=O)c1cc(Br)c(O)c(C#N)c1` [Example 14, 3-bromo-5-(2-ethyl-6-fluoroimidazo[1,2-a]pyrimidine-3-carbonyl)-2-hydroxybenzonitrile] displayed an IC50 of 50 to 200 nM. Under `CCn1nc2ccc(F)cc2c1C(=O)c1cc(Br)c(O)c(Br)c1` [Example 9, (3,5-dibromo-4-hydroxyphenyl)(2-ethyl-5-fluoro-2H-indazol-3-yl) methanone] stands 50 to 200 nM. For the molecule `CCc1nc2ncc(F)cn2c1C(=O)c1cc(Br)c(O)c(C(F)(F)F)c1` [Example 18, (3-bromo-4-hydroxy-5-(trifluoromethyl)phenyl)(2-ethyl-6-fluoroimidazo[1,2-a]pyrimidin-3-yl)methanone], the IC50 is less than 50 nM. Under `CCc1nc2ncc(Cl)cn2c1C(=O)c1cc(Br)c(O)c(Br)c1` [Example 6, (6-chloro-2-ethylimidazo[1,2-a]pyrimidin-3-yl)(3,5-dibromo-4-hydroxyphenyl)methanone] stands less than 50 nM; under `CCc1nc2ncccn2c1C(=O)c1cc(Br)c(O)c(C#N)c1` [Example 22, 3-bromo-5-(2-ethylimidazo[1,2-a]pyrimidine-3-carbonyl)-2-hydroxybenzonitrile], 200 to 500 nM.

One may read the IC50 as the point on the concentration scale where inhibition reaches its midpoint.

Values taken from patent US11453674B2, “Heterocyclic compound, preparation method and use thereof in medicine” (SUZHOU SINOVENT PHARMACEUTICALS CO., LTD., priority 2019, dated 2022).
